Assay results published in PubChem BioAssay AID180 (DTP/NCI, 2004).
“And” between values parts separate entries of the source, which are not always exact repeats. Equal values may be shown once.

Tested on: BDF1 mice, Adenocarcinoma 755 s.c., tumor weight T/C
Assay: NCI In Vivo Anticancer Drug Screen. Data for tumor model Adenocarcinoma 755 (subcutaneous) in B6D2F1 (BDF1) mice
Conditions: endpoint: mean tumor weight, higher = larger tumour
Summary of the method: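 Tumor-bearing mice receive test compound while controls get vehicle alone. Antitumor effect is scored from survival or tumor dimensions as a T/C quotient.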

SMILES: c1cncc(CSc2ncnc3nc[nH]c23)c1
- T/C (dose: 0.78 mg/kg/injection, schedule: Q01DX011 (ip), vehicle: methylcellulose (MC)): 79 % of control
- T/C (dose: 1.55 mg/kg/injection, schedule: Q01DX011 (ip), vehicle: methylcellulose (MC)): 40 % of control
- T/C (dose: 3.1 mg/kg/injection, schedule: Q01DX011 (ip), vehicle: methylcellulose (MC)): 61 % of control
- T/C (dose: 6.25 mg/kg/injection, schedule: Q01DX011 (ip), vehicle: methylcellulose (MC)): 8 % of control and 20 % of control
- T/C (dose: 12.5 mg/kg/injection, schedule: Q01DX011 (ip), vehicle: methylcellulose (MC)): 4 % of control
- T/C (dose: 25.0 mg/kg/injection, schedule: Q01DX011 (ip), vehicle: methylcellulose (MC)): 2 % of control
- T/C (dose: 50.0 mg/kg/injection, schedule: Q01DX011 (ip), vehicle: methylcellulose (MC)): 2 % of control

SMILES: Cc1ccc(S(=O)(=O)NCCCCC(Nc2ncnc3nc[nH]c23)C(=O)O)cc1 (stereo not given)
- T/C (dose: 25.0 mg/kg/injection, schedule: Q01DX011 (ip), vehicle: saline): 81 % of control
- T/C (dose: 75.0 mg/kg/injection, schedule: Q01DX011 (ip), vehicle: saline): 21 % of control
- T/C (dose: 225.0 mg/kg/injection, schedule: Q01DX011 (ip), vehicle: saline): 4 % of control

SMILES: CN(C)N=Nc1ccc(-c2ccc(N=NN(C)C)cc2)cc1
- T/C (dose: 17.5 mg/kg/injection, schedule: Q01DX011 (ip), vehicle: other): 92 % of control
- T/C (dose: 31.2 mg/kg/injection, schedule: Q01DX011 (ip), vehicle: other): 56 % of control
- T/C (dose: 35.0 mg/kg/injection, schedule: Q01DX011 (ip), vehicle: other): 72 % of control
- T/C (dose: 50.0 mg/kg/injection, schedule: Q01DX011 (ip), vehicle: water): 70 % of control
- T/C (dose: 62.5 mg/kg/injection, schedule: Q01DX011 (ip), vehicle: other): 46 % of control
- T/C (dose: 70.0 mg/kg/injection, schedule: Q01DX011 (ip), vehicle: other): 75 % of control
- T/C (dose: 100.0 mg/kg/injection, schedule: Q01DX011 (ip), vehicle: water): 39 % of control
- T/C (dose: 125.0 mg/kg/injection, schedule: Q01DX011 (ip), vehicle: other): 32 % of control
- T/C (dose: 140.0 mg/kg/injection, schedule: Q01DX011 (ip), vehicle: other): 40 % of control
- T/C (dose: 150.0 mg/kg/injection, schedule: Q01DX011 (ip), vehicle: water): 46 % of control
- T/C (dose: 200.0 mg/kg/injection, schedule: Q01DX011 (ip), vehicle: water): 61 % of control

SMILES: CN(C)c1nc(S(=O)(=O)N(C)C)nc2nc[nH]c12
- T/C (dose: 25.0 mg/kg/injection, schedule: Q01DX011 (ip), vehicle: carboxymethylcellulose (CMC)): 115 % of control
- T/C (dose: 75.0 mg/kg/injection, schedule: Q01DX011 (ip), vehicle: carboxymethylcellulose (CMC)): 117 % of control
- T/C (dose: 225.0 mg/kg/injection, schedule: Q01DX011 (ip), vehicle: carboxymethylcellulose (CMC)): 95 % of control

SMILES: CN(C)c1nc(N(C)C)nc(N(C)C)n1
- T/C (dose: 4.75 mg/kg/injection, schedule: Q01DX011 (ip), vehicle: other): 121 % of control
- T/C (dose: 9.5 mg/kg/injection, schedule: Q01DX011 (ip), vehicle: other): 67 % of control
- T/C (dose: 10.88 mg/kg/injection, schedule: Q01DX011 (ip), vehicle: other): 95 % of control
- T/C (dose: 10.9 mg/kg/injection, schedule: Q01DX011 (ip), vehicle: other): 95 % of control
- T/C (dose: 11.25 mg/kg/injection, schedule: Q01DX011 (iv), vehicle: other): 108 % of control
- T/C (dose: 13.85 mg/kg/injection, schedule: Q01DX011 (ip), vehicle: carboxymethylcellulose (CMC)): 87 % of control
- T/C (dose: 13.85 mg/kg/injection, schedule: Q01DX011 (ip), vehicle: other): 104 % of control
- T/C (dose: 14.13 mg/kg/injection, schedule: Q01DX011 (ip), vehicle: other): 117 % of control
- T/C (dose: 15.6 mg/kg/injection, schedule: Q01DX011 (oral), vehicle: other): 77 % of control
- T/C (dose: 15.6 mg/kg/injection, schedule: Q01DX011 (oral), vehicle: saline): 88 % of control
- T/C (dose: 19.0 mg/kg/injection, schedule: Q01DX011 (ip), vehicle: other): 53 % of control
- T/C (dose: 21.75 mg/kg/injection, schedule: Q01DX011 (ip), vehicle: other): 55 % of control and 73 % of control
- T/C (dose: 22.5 mg/kg/injection, schedule: Q01DX011 (iv), vehicle: other): 67 % of control
- T/C (dose: 25.0 mg/kg/injection, schedule: Q01DX011 (ip), vehicle: other): 59 % of control
- T/C (dose: 27.7 mg/kg/injection, schedule: Q01DX011 (ip), vehicle: carboxymethylcellulose (CMC)): 161 % of control
- T/C (dose: 27.7 mg/kg/injection, schedule: Q01DX011 (ip), vehicle: other): 56 % of control
- T/C (dose: 30.37 mg/kg/injection, schedule: Q01DX011 (ip), vehicle: carboxymethylcellulose (CMC)): 53 % of control
- T/C (dose: 31.25 mg/kg/injection, schedule: Q01DX011 (ip), vehicle: carboxymethylcellulose (CMC)): 118 % of control
- T/C (dose: 31.25 mg/kg/injection, schedule: Q01DX011 (ip), vehicle: methylcellulose (MC)): 91 % of control
- T/C (dose: 31.25 mg/kg/injection, schedule: Q01DX011 (iv), vehicle: other): 80 % of control and 85 % of control
- T/C (dose: 31.3 mg/kg/injection, schedule: Q01DX011 (oral), vehicle: other): 101 % of control
- T/C (dose: 31.3 mg/kg/injection, schedule: Q01DX011 (oral), vehicle: saline): 75 % of control
- T/C (dose: 34.8 mg/kg/injection, schedule: Q01DX011 (ip), vehicle: carboxymethylcellulose (CMC)): 50 % of control
- T/C (dose: 43.5 mg/kg/injection, schedule: Q01DX011 (ip), vehicle: carboxymethylcellulose (CMC)): 47 % of control
- T/C (dose: 43.5 mg/kg/injection, schedule: Q01DX011 (ip), vehicle: other): 109 % of control
- T/C (dose: 45.0 mg/kg/injection, schedule: Q01DX011 (iv), vehicle: other): 89 % of control
- T/C (dose: 55.4 mg/kg/injection, schedule: Q01DX011 (ip), vehicle: carboxymethylcellulose (CMC)): 96 % of control
- T/C (dose: 55.4 mg/kg/injection, schedule: Q01DX011 (ip), vehicle: other): 45 % of control
- T/C (dose: 56.5 mg/kg/injection, schedule: Q01DX011 (ip), vehicle: other): 54 % of control
- T/C (dose: 58.0 mg/kg/injection, schedule: Q01DX011 (ip), vehicle: carboxymethylcellulose (CMC)): 29 % of control
- T/C (dose: 60.75 mg/kg/injection, schedule: Q01DX011 (ip), vehicle: carboxymethylcellulose (CMC)): 78 % of control
- T/C (dose: 62.5 mg/kg/injection, schedule: Q01DX011 (ip), vehicle: carboxymethylcellulose (CMC)): 88 % of control
- T/C (dose: 62.5 mg/kg/injection, schedule: Q01DX011 (ip), vehicle: methylcellulose (MC)): 82 % of control
- T/C (dose: 62.5 mg/kg/injection, schedule: Q01DX011 (iv), vehicle: other): 51 % of control and 57 % of control
- T/C (dose: 62.5 mg/kg/injection, schedule: Q01DX011 (oral), vehicle: other): 74 % of control
- T/C (dose: 62.5 mg/kg/injection, schedule: Q01DX011 (oral), vehicle: saline): 105 % of control
- T/C (dose: 87.0 mg/kg/injection, schedule: Q01DX011 (ip), vehicle: carboxymethylcellulose (CMC)): 11 % of control
- T/C (dose: 87.0 mg/kg/injection, schedule: Q01DX011 (ip), vehicle: other): 14 % of control
- T/C (dose: 121.5 mg/kg/injection, schedule: Q01DX011 (ip), vehicle: carboxymethylcellulose (CMC)): 48 % of control
- T/C (dose: 125.0 mg/kg/injection, schedule: Q01DX011 (ip), vehicle: carboxymethylcellulose (CMC)): 43 % of control
- T/C (dose: 125.0 mg/kg/injection, schedule: Q01DX011 (ip), vehicle: methylcellulose (MC)): 34 % of control
- T/C (dose: 125.0 mg/kg/injection, schedule: Q01DX011 (iv), vehicle: other): 8 % of control
- T/C (dose: 125.0 mg/kg/injection, schedule: Q01DX011 (oral), vehicle: other): 54 % of control
- T/C (dose: 125.0 mg/kg/injection, schedule: Q01DX011 (oral), vehicle: saline): 106 % of control
- T/C (dose: 250.0 mg/kg/injection, schedule: Q01DX011 (ip), vehicle: carboxymethylcellulose (CMC)): 36 % of control
- T/C (dose: 250.0 mg/kg/injection, schedule: Q01DX011 (oral), vehicle: saline): 40 % of control
